Patent publication US9339034B2, “Use of thaxtomin for selective control of rice and aquatic based weeds” (MARRONE BIO INNOVATIONS, INC., priority 2009, dated 2016)

Assays:
DSA = assay: Greenhouse pot study, weed control; format: in vivo, Heteranthem limosa
SPZ = assay: Greenhouse pot study, weed control; format: in vivo, Sphenoclea zeylanica
LEF = assay: Greenhouse pot study, weed control; format: in vivo
barnyardgrass = assay: First study, weed control; format: in vivo; details: 500-1000 g a.i. per hectare
BYG = assay: Greenhouse pot study, weed control; format: in vivo, barnyardgrass
ECC = assay: Greenhouse pot study, weed control; format: in vivo, Echinochloa colonum
Description: (§1) Moderate suppression (60%) was noted on Echinochloa colonum at 500 g a.i. per hectare.

Echinochloa colonum = assay: First study, weed control; format: in vivo; details: 500-1000 g a.i. per hectare
MON = assay: Greenhouse pot study, weed control; format: in vivo, Monorhoria vaginalis
MAQ = assay: Greenhouse pot study, weed control; format: in vivo, Marsilea quadrifolia
Description: The activity on susceptible and resistant biotypes of Scirpus mucronatus was somewhat weaker (70 to 75%) than that observed for other sedge weeds in this study.

[1] = system: most of the Echinochloa spp.; assay: Greenhouse pot study, weed control; format: in vivo; details: up to the highest rate tested; 1000 g a.i. per hectare
Description: as §1

With `CN1C(=O)[C@](O)(Cc2cccc(O)c2)N(C)C(=O)[C@@H]1Cc1c[nH]c2cccc([N+](=O)[O-])c12` [thaxtomin A] the “% control” value (DSA; 64 g/ha) was 0%, the “% control” value (DSA; 125 g/ha) was 100% and the “% control” value (DSA; 250 g/ha) was 100%. For the same molecule, the “% control” value (DSA; 500 g/ha) was 100%, the “% control” value (DSA; 1000 g/ha) was 100% and the “% control” value (SPZ; 64 g/ha) was 0%. The “% control” value (SPZ; 125 g/ha) was 90%, the “% control” value (SPZ; 250 g/ha) was 90% and the “% control” value (SPZ; 500 g/ha) was 100%. For the same molecule, the “% control” value (SPZ; 1000 g/ha) was 100%, the “% control” value (LEF; 64 g/ha) was 0% and the “% control” value (LEF; 125 g/ha) was 50%. For the same molecule, the “% control” value (LEF; 250 g/ha) was 60%, the “% control” value (LEF; 500 g/ha) was 70% and the “% control” value (LEF; 1000 g/ha) was 100%. The activity on barnyardgrass (barnyardgrass) was “moderate activity”, the “% control” value (BYG; 64 g/ha) was 0% and the “% control” value (BYG; 125 g/ha) was 0%. For the same molecule, the “% control” value (BYG; 250 g/ha) was 15%, the “% control” value (BYG; 500 g/ha) was 30% and the “% control” value (BYG; 1000 g/ha) was 40%. The “% control” value (ECC; 64 g/ha) was 0%, the “% control” value (ECC; 125 g/ha) was 0% and the “% control” value (ECC; 250 g/ha) was 35%. For the same molecule, the “% control” value (ECC; 500 g/ha) was 60%, the “% control” value (ECC; 1000 g/ha) was 60% and the “% control” value (Echinochloa colonum) was 90-100%. The “% control” value (MON; 64 g/ha) was 0%, the “% control” value (MON; 125 g/ha) was 100% and the “% control” value (MON; 250 g/ha) was 100%. The “% control” value (MON; 500 g/ha) was 100%, the “% control” value (MON; 1000 g/ha) was 100% and the “% control” value (MAQ; 64 g/ha) was 20%. The “% control” value (MAQ; 125 g/ha) was 25%, the “% control” value (MAQ; 250 g/ha) was 40% and the “% control” value (MAQ; 500 g/ha) was 70%. For the same molecule, the “% control” value (MAQ; 1000 g/ha) was 85% and the “activity on Echinochloa spp.” value [1] was “weakness”.
